Measurements reported in publication PMC10522709, “Rational design and characterization of cell-selective antimicrobial peptides based on a bioactive peptide from Crocodylus siamensis hemoglobin” (Scientific Reports, 2023).
Where two headings read alike, the source gives them in different places. Ends that are not written are not given here.

Experiments:
Type in all cases: cell-based
[1] = test system: human erythrocytes; conditions: red cells of human, 1 h
Experimental: Human whole blood was obtained from Blood Transfusion Center Faculty of Medicine Khon Kaen University (ethical approval number HE601010). Fresh human erythrocytes were carefully mixed with PBS (1:3) and centrifuged at 1000 × g for 2 min. The supernatant was discarded and the cell pellet was resuspended to 2% w/v in PBS. 100 µL of the resuspended erythrocytes were incubated with the peptide (10 µL, final concentrations ranging from 12.5 to 100 μg/mL, two-fold serial dilution) at 37 °C for 1 h. After the treatment, the plate was centrifuged and the supernatant was taken to determine the optical density at 415 nm using a microplate reader (ALLSHENG, Zhejiang, China). The positive control for this assay was the addition of Triton X-100 (1% v/v), which causes 100% hemolysis. The negative control was cells treated with PBS buffer only. The hemolysis activity was estimated using the equation: %hemolysis=OD415ofsample/OD415ofTritonX-100treatedcontrol×100

[2] = test system: Pseudomonas aeruginosa (ATCC 27853); conditions: ATCC 27853, 18 h
Experimental: (§1) Broth microdilution assays were performed as reported previously. In short, the bacteria including Escherichia coli (ATCC 25922), Klebsiella pneumoniae (ATCC 27736), Pseudomonas aeruginosa (ATCC 27853), Bacillus subtilis (ATCC 6633), Staphylococcus aureus (ATCC 25923) and Staphylococcus epidermidis (ATCC 12228) were grown in Nutrient broth to mid-log phase at 37 °C. The bacterial suspension (50 μL, concentration of 1 × 10^6 CFU/mL) was loaded into a well with serially diluted peptide (50 µL, final concentrations ranging from 0–200 μg/mL) in a sterile 96-well plate and incubated at 37 °C for 18 h. The optical density (OD) at 600 nm was measured using a microplate reader (ALLSHENG, Zhejiang, China) in order to determine the growth of the bacteria. The inhibition was estimated using the formula; %inhibition=OD600ofcontrol-OD600ofsample/OD600ofcontrol-OD600ofblank×100 where minimal inhibitory concentration (MIC) is defined as the minimum concentration that inhibited 90% of bacterial growth.

[3] = test system: Staphylococcus aureus (ATCC 25923); conditions: ATCC 25923, 18 h
Experimental: as §1

[4] = test system: Bacillus subtilis (ATCC 6633); conditions: ATCC 6633, 18 h
Experimental: as §1

[5] = test system: Staphylococcus epidermidis (ATCC 12228); conditions: ATCC 12228, 18 h
Experimental: as §1

[6] = test system: Escherichia coli (ATCC 25922); conditions: ATCC 25922, 18 h
Experimental: as §1

[7] = test system: several bacterial strains; conditions: for MIC, over all strains tested: 18 h
Experimental: as §1

[8] = test system: Klebsiella pneumoniae (ATCC 27736); conditions: ATCC 27736, 18 h
Experimental: as §1

[9] = test system: Pseudomonas aeruginosa (ATCC 27853); conditions: ATCC 27853, 24 h
Experimental: as §1
(§2) In order to evaluate the minimal bactericidal concentration (MBC)—the lowest concentration that terminates the growth of bacteria on an agar plate—of the peptide, co-culture medium (100 μL) from each well after the microdilution assay was spread on a nutrient agar plate. Plates were maintained at 37 °C for 24 h and the number of colonies formed was counted to evaluate antimicrobial activity.

[10] = test system: Staphylococcus aureus (ATCC 25923); conditions: ATCC 25923, 24 h
Experimental: as §1, §2

[11] = test system: Bacillus subtilis (ATCC 6633); conditions: ATCC 6633, 24 h
Experimental: as §1, §2

[12] = test system: Staphylococcus epidermidis (ATCC 12228); conditions: ATCC 12228, 24 h
Experimental: as §1, §2

[13] = test system: Escherichia coli (ATCC 25922); conditions: ATCC 25922, 24 h
Experimental: as §1, §2

[14] = test system: Klebsiella pneumoniae (ATCC 27736); conditions: ATCC 27736, 24 h
Experimental: as §1, §2

[15] = test system: human peripheral blood mononuclear cells (PBMC); conditions: 24 h
Experimental: (§3) Human peripheral blood mononuclear cells (PBMC), African green monkey kidney cells (Vero), human keratinocyte cells (HaCaT) and mouse preadipocytes (3T3-L1) were used to evaluate the cytotoxicity of peptides by the MTT assay. PBMCs were isolated using Ficoll medium (GE Healthcare, Uppsala, Sweden) as described by Jangpromma et al.[28]. The PBMCs were then cultured in RPMI 1640, while Vero, HaCaT and 3T3-L1 cells were cultured in DMEM. All culture mediums were supplemented with 10% heat-inactivated fetal bovine serum (FBS) and 1% antibiotic:antimycotic (Gibco, USA). The cells were cultured at 37 °C with 5% CO2/95% relative humidity. After that, PBMC (2 × 10^6 cells/well), Vero (1 × 10^4 cells/well), HaCaT (1 × 10^4 cells/well) and 3T3-L1 (1 × 10^4 cells/well) were individually seeded into 96-well plate and cultured at 37 °C overnight. Next, two-fold serially diluted peptides (3.13–200 μg/mL) were added to the cell culture. After incubation in 5% (v/v) CO2 incubator for 24 h, the medium culture was removed and MTT solution ([…] final concentration in fresh medium culture) was added to the cells and incubated for 30 min. Thereafter, the medium was removed and DMSO (100 µL) was added to each well to dissolve the formazan crystals. The optical density at 570 nm was determined using a microplate reader (ALLSHENG, Zhejiang, China). The cytotoxicity of IL15.3 against Vero, HaCaT and 3T3-L1 cells in the absence of FBS was also measured by the MTT assay to confirm the peptide is not sequestered by proteins in the serum causing artificially low cytotoxicity against eukaryotic cells.
(§4) Cell viability was determined using the equation: %cellviability=OD570ofsample/OD570ofuntreatedcontrol×100
(§5) GraphPad Prism8 (San Diego, CA, USA) was used to calculate IC50 values using a non-linear regression model.

[16] = test system: human keratinocyte cells (HaCaT); conditions: 24 h
Experimental: as §3, §4, §5

Row | Sequence | Hemolysis concentration50 (HC50) [1] | MIC [2] | MIC [3] | MIC [4] | MIC [5] | MIC [6] | MIC, over all strains tested [7] | MIC [8] | MBC [9] | MBC [10] | MBC [11] | MBC [12] | MBC [13] | MBC [14] | IC50 PBMC [15] | IC50 HaCaT [16] | increase of SI in comparison with IL15.2 ([7]; towards gram-negative bacteria) | increase of SI in comparison with IL15.2 ([7]; towards gram-positive bacteria)
1 | IRHWRRVWRHWRRRL [IL15.5] | 896 µg/mL | 35 mg/L | 25 mg/L | 8 mg/L | 12 mg/L | 15 mg/L | 8 to 75 mg/L | 75 mg/L | 50 mg/L | 50 mg/L | 12 mg/L | 15 mg/L | 25 mg/L | 100 mg/L | 113 mg/L | 200 mg/L |  | 
2 | IIHNEKVQAHGKKVL [IL15] | >2000 µg/mL | > 200 mg/L | > 200 mg/L | > 200 mg/L | > 200 mg/L | > 200 mg/L | > 200 mg/L | > 200 mg/L | > 200 mg/L | > 200 mg/L | > 200 mg/L | > 200 mg/L | > 200 mg/L | > 200 mg/L | >200 mg/L | >200 mg/L |  | 
3 | IKHWEKVWKHGKKVL [IL15.1] | >2000 µg/mL | > 200 mg/L | > 200 mg/L | > 200 mg/L | > 200 mg/L | > 200 mg/L | > 200 mg/L | > 200 mg/L | > 200 mg/L | > 200 mg/L | > 200 mg/L | > 200 mg/L | > 200 mg/L | > 200 mg/L | >200 mg/L | >200 mg/L |  | 
4 | IKHWKKVWKHWKKKL [IL15.4] | >2000 µg/mL | 10 mg/L | 12 mg/L | 6 mg/L | 9 mg/L | 4 mg/L |  | 14 mg/L | 14 mg/L | 25 mg/L | 10 mg/L | 12 mg/L | 6 mg/L | 50 mg/L | >200 mg/L | >200 mg/L | approximately 6 fold | ~25 fold
5 | QAIIHNEKVQAHGKKVL [QL17] | >2000 µg/mL | > 200 mg/L | > 200 mg/L | > 200 mg/L | > 200 mg/L | > 200 mg/L | > 200 mg/L | > 200 mg/L | > 200 mg/L | > 200 mg/L | > 200 mg/L | > 200 mg/L | > 200 mg/L | > 200 mg/L | >200 mg/L | >200 mg/L |  | 
6 | IKHWKKVWKHGKKVL [IL15.2] | >2000 µg/mL | > 200 mg/L | > 200 mg/L | 50 mg/L | > 200 mg/L | 100 mg/L |  | > 200 mg/L | > 200 mg/L | > 200 mg/L | 60 mg/L | > 200 mg/L | 150 mg/L | > 200 mg/L | >200 mg/L | >200 mg/L |  | 
